Tests used:
[1] = test system: MET; test: MET biochemical kinase assay; parameters: species or system human; concentration or dose not given beside the values
Text: A met biochemical kinase assay may be performed for met generally as described above for other kinases by substituting that or the other kinases. In particular, ELISA plates are coated with goat anti-rabbit Fc antibodies, which are used to capture commercially available (from Santa Cruz Biotechnology) rabbit polyclonal antibodies to the cytoplasmic domain of human MET. […] The chimeric receptors, or MET, from these lysates are captured on the antibody coated plates. After washing away extraneous proteins, test compounds are added and an in vitro kinase assay is performed by addition of an appropriate kinase buffer (containing ATP, divalent metal ions, etc.). Incorporation of phosphate into the captured receptors is detected with an anti-phosphotyrosine antibody conjugate with horse radish peroxidase using TMB as a substrate for colorimetric detection.

[2] = target: T1, EGFR (Homo sapiens, UniProt P00533); test: EGFR ELISA assay (in vitro kinase activity, EGFR captured from A431 cell lysate); type: biochemical; parameters: concentration or dose not given beside the values
T1 construct: Add 7 ug A431 cell lysate per well (EGFR source); endogenous in cells; host or cells: A431
T1 sequence (P00533 25-1210): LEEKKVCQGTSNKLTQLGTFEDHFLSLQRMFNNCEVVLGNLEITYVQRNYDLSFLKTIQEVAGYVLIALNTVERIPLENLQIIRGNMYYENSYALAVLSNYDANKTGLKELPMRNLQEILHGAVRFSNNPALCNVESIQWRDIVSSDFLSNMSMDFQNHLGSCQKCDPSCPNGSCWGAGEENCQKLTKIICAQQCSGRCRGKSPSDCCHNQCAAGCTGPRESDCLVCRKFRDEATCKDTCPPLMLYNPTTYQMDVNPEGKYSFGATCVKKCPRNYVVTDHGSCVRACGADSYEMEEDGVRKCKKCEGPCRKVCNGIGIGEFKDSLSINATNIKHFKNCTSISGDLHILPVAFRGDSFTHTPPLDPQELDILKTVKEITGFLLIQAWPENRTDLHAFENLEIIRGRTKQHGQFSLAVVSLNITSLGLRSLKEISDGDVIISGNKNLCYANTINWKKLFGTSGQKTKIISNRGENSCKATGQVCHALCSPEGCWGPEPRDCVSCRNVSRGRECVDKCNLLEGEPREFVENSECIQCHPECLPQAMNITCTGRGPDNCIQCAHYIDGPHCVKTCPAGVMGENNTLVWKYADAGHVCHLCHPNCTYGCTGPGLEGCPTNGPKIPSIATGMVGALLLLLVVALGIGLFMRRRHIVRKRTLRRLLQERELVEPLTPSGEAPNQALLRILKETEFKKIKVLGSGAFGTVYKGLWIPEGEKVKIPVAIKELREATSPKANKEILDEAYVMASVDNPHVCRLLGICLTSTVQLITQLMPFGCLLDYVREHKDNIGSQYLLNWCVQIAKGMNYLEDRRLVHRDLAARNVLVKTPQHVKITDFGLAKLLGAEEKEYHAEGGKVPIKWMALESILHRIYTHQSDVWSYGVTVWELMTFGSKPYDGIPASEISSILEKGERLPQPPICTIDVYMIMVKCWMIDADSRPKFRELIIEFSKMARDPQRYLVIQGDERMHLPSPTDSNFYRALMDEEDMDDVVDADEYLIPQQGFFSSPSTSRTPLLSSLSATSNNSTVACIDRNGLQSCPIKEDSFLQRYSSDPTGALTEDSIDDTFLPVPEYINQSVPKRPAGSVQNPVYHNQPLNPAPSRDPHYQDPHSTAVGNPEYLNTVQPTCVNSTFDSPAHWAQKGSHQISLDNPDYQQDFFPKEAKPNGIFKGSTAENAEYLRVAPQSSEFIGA
Text: To provide a consistent method for measuring the in vitro kinase activity of the EGFR in an Enzyme-linked immunosorbent assay (Elisa).
Scope. The following protocol describes the procedures used to analyze protein tyrosine kinase activity on the EGFR in an Elisa. The procedure also describes the protocol for the initial screening of drugs for inhibition or activation of protein tyrosine kinase activity.
Reagents and Supplies. • 1. […] 05-101 monoclonal anti-EGFR antibody (commercially available from UB1) -80° C, 1 ml aliquots • 3. […] TBST Buffer Formulation: 50 mM Tris pH 7.2 150 mM NaCl 0.1% Triton X-100 • 5. Blocking Buffer Formulation: 5% Carnation Instant Milk in PBS • 6. A431 cell lysate A431 cells are available from a variety of commercial sources and may be used lysed using conventional methods known to those skilled in the art or as described for lysis of the 3T3 cells in the EGF cellular assay described herein. -80° C, 1 ml aliquots • 7. TBS Buffer Formulation: 50 mM Tris pH 7.2 150 mM NaCl • 8. […] NUNC 96-well V bottom polypropylene plates Applied Scientific Catalog # AS-72092 • 11. EDTA Formulation: 200 mM EDTA pH 8.0 • 12. […] Goat anti-rabbit IgG peroxidase conjugate Biosource Catalog # ALI0404 • 14. ABTS Solution Formulation: 100 mM Citric Acid (anhydrous) 250 mM Na2HPO4 pH 4.0 0.5 mg/ml ABTS (2,2'-azino-bis(3-ethylbenzthiazoline-6-sulfonic acid) (Sigma Catalog # A-1888) Keep solution in dark at 4 C until ready to use • 15. Hydrogen peroxide 30% solution Fisher Catalog # H325 Store in the dark at 4 C until ready to use • 16. ABTS/H2O2 Formulation: 15 mls ABTS solution 2 ul H2O2 Prepare 5 minutes before use and room temperature • 17. 0.2 M HCL stock in H2O Procedure. • 1. Coat Corning 96-well elisa plates with 0.5 ug per well 05-101 antibody. Bring final volume to 100 ul per well with PBS. Coat plates overnight at 4° C. • 2. Remove unbound 05-101 from wells by inverting plate to remove liquid. Wash 1x with distilled H2O by filling wells Pat the plate on a paper towel to remove excess liquid. • 3. Block plates with 5% milk in PBS. 150 ul per well. Incubate plate 30 minutes while shaking on a microtiter plate shaker. • 4. Wash plate 3x with dionized water, then once with TBST • 5. Add 7 ug A431 cell lysate per well (EGFR source). Add PBS to final volume of 100 ul per well Incubate 30 minutes while shaking. • 6. Wash as described in step 4. • 7. At this point, drugs or extracts are added to the wells. Dilute drugs/extracts 1:100 (unless specified otherwise) in TBS + 10% DMSO in 96-well polypropylene plates. Add 120 ul TBS to ELISA plate containing captured EGFR. Add 13.5 ul diluted drugs/extracts to ELISA plate. […] Incubate plate 30 minutes while shaking. • 8. […] (150 ul final volume in well with 3 uM ATP/5 mM MnCl2 final concentration in well.) Incubate 5 minutes while shaking vigorously. *NOTE: It is critical that ATP/MnCl2 phosphorylates the receptor for 5 minutes only. It is best to add the ATP/MnCl2 with an 12 channel pipettor 1 row at a time leaving 20 seconds between each row so that the reaction may be stopped with EDTA exactly 5 minutes later (this depends on the number of plates being phosphorylated in one batch). Shake between each addition. • 9. After 5 minutes, to stop reaction, add 16.5 ul of 200 mM EDTA pH 8.0 for 20 mM final in well, shaking continuously between each addition. This is done using the same timing method as above. After last row has received EDTA, shake plate an additional minute. • 10. Wash 4x with deionized water, twice with TBST. • 11. Add rabbit polyclonal anti-phosphotyrosine serum. Dilute 1:3000 in TBST. Add 100 ul per well. Incubate 30-45 minutes while shaking. • 12. Wash as described above in step 4. • 13. Add BioSource anti-rabbit peroxidase conjugate antibody. Dilute 1:2000 in TBST. Add 100 ul per well. Incubate 30 minutes while shaking. • 14. Wash as described in step 4. • 15. Add 100 ul of ABTS/H2O2 solution to well. Incubate 5 to 10 minutes while shaking. Remove bubbles • 16. […]

SMILES | Met Kinase % Inhibition [1] [%] | Biochem EGFR %Inhibition [2] [%]
COc1ccc(C=C2C(=O)Nc3c(Br)cc(Br)cc32)cc1C(C)(C)C [10732/A05] | 20.5 | 4.6
COc1c(Br)cc(C=C2C(=O)Nc3ccc(I)cc32)cc1C(C)(C)C [10732/B07] | 75.1 | 15.8
Cc1c(Br)ccc2c1C(=Cc1ccco1)C(=O)N2 [10718/C10] | 4.4 | -18.7
CCOC(=O)c1cc(C=C2C(=O)Nc3ccc(S(=O)(=O)NC)cc32)oc1C [10718/D06] | 11.1 | 20.0
CNS(=O)(=O)c1ccc2c(c1)C(=CC(c1cccs1)C(F)(F)F)C(=O)N2 (stereo not drawn) [10732/D02] | 50.2 | 8.7
Cc1ccc2occ(C=C3C(=O)Nc4ccc(CCCl)cc43)c(=O)c2c1 [10731/G06] | 33.3 | 2.3
CC(C)(C)c1cc(C=C2C(=O)Nc3c(Br)cc(Br)cc32)ccc1OCc1ccccc1 [10732/A06] | 5.7 | -1.4
CNS(=O)(=O)c1ccc2c(c1)C(=Cc1coc3ccc(C(C)C)cc3c1=O)C(=O)N2 [10731/D05] | 92.7 | 53.9
O=C1Nc2ccc(I)cc2C1=CC(c1cccs1)C(F)(F)F (stereo not drawn) [10732/B02] | 78.0 | -26.0
CNS(=O)(=O)c1ccc2c(c1)C(=Cc1c[nH]c(=O)[nH]c1=O)C(=O)N2 [10731/D08] | 44.2 | 16.8
COc1c(C(C)C)cc(C=C2C(=O)Nc3c(Br)cc(Br)cc32)cc1C(C)C [10732/A03] | 37.4 | 0.8
COc1c(Cl)cc(C=C2C(=O)Nc3ccc(Br)c(C)c32)cc1C(C)(C)C [10732/C09] | 37.9 | -3.9
CNS(=O)(=O)c1ccc2c(c1)C(=Cc1cc(C(C)C)c(OC)c(C(C)C)c1)C(=O)N2 [10732/D03] | 24.9 | -18.7
COc1c(C(C)C)cc(C=C2C(=O)Nc3ccc(Br)c(C)c32)cc1C(C)C [10732/C03] | 14.0 | 1.4
CCn1c2ccccc2c2cc(C=C3C(=O)Nc4ccc(S(=O)(=O)Nc5ccc(C(F)(F)F)cc5)cc43)ccc21 [10731/E02] | 49.1 | 7.9
CNS(=O)(=O)c1ccc2c(c1)C(=Cc1coc3ccc(C)cc3c1=O)C(=O)N2 [10731/D06] | 59.7 | 23.2
COc1c(I)cc(C=C2C(=O)Nc3c(Br)cc(Br)cc32)cc1C(C)(C)C [10732/A11] | 65.3 | 1.8
COc1ccc(C=C2C(=O)Nc3ccc(I)cc32)cc1C(C)(C)C [10732/B05] | 71.2 | 17.0
CC(C)(C)c1cc(C=C2C(=O)Nc3ccc(I)cc32)cc(Cl)c1OCc1ccccc1 [10732/B10] | 51.5 | 0.6
Cc1ccc2occ(C=C3C(=O)Nc4ccc(S(=O)(=O)N5CCOCC5)cc43)c(=O)c2c1 [10731/F06] | 20.9 | 7.2
CNS(=O)(=O)c1ccc2c(c1)C(=Cc1coc3ccc([N+](=O)[O-])cc3c1=O)C(=O)N2 [10731/D07] | 45.9 | 25.9

Reference: patent EP1247803A2, “Indolinone compounds suitable for modulation of protein kinases” (Sugen, Inc., priority 1996, dated 1998)
